Toxic doses and inconclusive results are not listed.
Test system: L1210 leukemia ip in BDF1 mice, survival T/C
Experiment: NCI In Vivo Anticancer Drug Screen. Data for tumor model L1210 Leukemia (intraperitoneal) in B6D2F1 (BDF1) mice
Settings: endpoint: mean survival time, higher = longer survival
Summary of the method: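 Value reflects the ratio of survival in compound-treated mice to survival in vehicle-treated controls, with both groups carrying the same transplanted tumor.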

[1] = dose: 50.0 mg/kg/injection, schedule: Q01DX001 (ip), vehicle: saline
[2] = dose: 100.0 mg/kg/injection, schedule: Q01DX001 (ip), vehicle: saline
[3] = dose: 100.0 mg/kg/injection, schedule: Q04DX003 (ip), vehicle: saline with Tween-80
[4] = dose: 200.0 mg/kg/injection, schedule: Q01DX001 (ip), vehicle: saline
[5] = dose: 400.0 mg/kg/injection, schedule: Q01DX001 (ip), vehicle: saline
[6] = dose: 100.0 mg/kg/injection, schedule: Q04DX003 (ip), vehicle: Klucel (hydroxypropylcellulose) (HPC)
[7] = dose: 200.0 mg/kg/injection, schedule: Q04DX003 (ip), vehicle: Klucel (hydroxypropylcellulose) (HPC)
[8] = dose: 400.0 mg/kg/injection, schedule: Q04DX003 (ip), vehicle: Klucel (hydroxypropylcellulose) (HPC)
[9] = dose: 100.0 mg/kg/injection, schedule: Q01DX009 (ip), vehicle: Klucel (hydroxypropylcellulose) (HPC)
[10] = dose: 200.0 mg/kg/injection, schedule: Q01DX009 (ip), vehicle: Klucel (hydroxypropylcellulose) (HPC)
[11] = dose: 400.0 mg/kg/injection, schedule: Q01DX009 (ip), vehicle: Klucel (hydroxypropylcellulose) (HPC)
[12] = dose: 100.0 mg/kg/injection, schedule: Q04DX002 (ip), vehicle: saline
[13] = dose: 400.0 mg/kg/injection, schedule: Q04DX002 (ip), vehicle: saline
[14] = dose: 100.0 mg/kg/injection, schedule: Q04DX003 (ip), vehicle: saline
[15] = dose: 200.0 mg/kg/injection, schedule: Q04DX003 (ip), vehicle: saline

## Cc1[nH]ccc2c(C)c3nc4ccccc4c3cc12
dose: 2.5 mg/kg/injection, schedule: Q01DX Z (ip), vehicle: carboxymethylcellulose (CMC)
  T/C: 110 % of control
dose: 5.0 mg/kg/injection, schedule: Q01DX Z (ip), vehicle: carboxymethylcellulose (CMC)
  T/C: 114 % of control
dose: 29.0 mg/kg/injection, schedule: Q04DX003 (ip), vehicle: saline with Tween-80
  T/C: 122 % of control
dose: 40.0 mg/kg/injection, schedule: Q01DX Z (ip), vehicle: saline
  T/C: 151 % of control
[1]
  T/C: 98 % of control
dose: 75.0 mg/kg/injection, schedule: Q01DX Z (ip), vehicle: saline
  T/C: 110 % of control
[2]
  T/C: 112 % of control
dose: 100.0 mg/kg/injection, schedule: Q01DX Z (ip), vehicle: saline
  T/C: 92 % of control
[3]
  T/C: 165 % of control
dose: 150.0 mg/kg/injection, schedule: Q04DX003 (ip), vehicle: saline with Tween-80
  T/C: 153 % of control
[4]
  T/C: 110 % of control
[5]
  T/C: 122 % of control

## CN(C)c1ccc(/C=C/c2ccc3ccccc3n2)c(F)c1
[6]
  T/C: 100 % of control
[7]
  T/C: 98 % of control
[8]
  T/C: 93 % of control

## O=C(O)c1ccc2c(c1Cl)C(=O)c1ccccc1C2=O
[3]
  T/C: 98 % of control
dose: 200.0 mg/kg/injection, schedule: Q04DX003 (ip), vehicle: saline with Tween-80
  T/C: 93 % of control

## CC(=O)c1cccc(NC(=O)OC2CCCC(C)C2)c1 (stereo not drawn)
[9]
  T/C: 93 % of control
[10]
  T/C: 101 % of control
[11]
  T/C: 97 % of control

## CC(Cl)CN(CC(C)Cl)C(=O)Oc1ccc([N+](=O)[O-])cc1 (stereo not drawn)
[9]
  T/C: 98 % of control
[10]
  T/C: 94 % of control
[11]
  T/C: 98 % of control

## Cc1ccc(C(=O)c2ccccc2Cc2ccc3ccccc3c2)cc1
[1]
  T/C: 100 % of control
[2]
  T/C: 94 % of control
[4]
  T/C: 96 % of control
[5]
  T/C: 93 % of control

## COC1OC(COC(C)=O)C(OC(C)=O)C2C1N2C(N)=S (stereo not drawn)
[12]
  T/C: 110 % of control
[13]
  T/C: 113 % of control

## Nc1ncnc2c1c(S(=O)(=O)O)cn2C1OC(CO)C(O)C1O (stereo not drawn)
dose: 100.0 mg/kg/injection, schedule: Q01DX001 (ip), vehicle: Klucel (hydroxypropylcellulose) (HPC)
  T/C: 90 % of control
dose: 200.0 mg/kg/injection, schedule: Q01DX001 (ip), vehicle: Klucel (hydroxypropylcellulose) (HPC)
  T/C: 93 % of control
dose: 400.0 mg/kg/injection, schedule: Q01DX001 (ip), vehicle: Klucel (hydroxypropylcellulose) (HPC)
  T/C: 100 % of control

## CCCCCCCCCCCCCCCC(=O)N(CCCN)CCCN(CCCN)C(=O)CCCCCCCCCCCCCCC
[14]
  T/C: 98 % of control

## O=C(CCN1CCOCC1)c1ccccc1
dose: 75.0 mg/kg/injection, schedule: Q01DX001 (ip), vehicle: saline
  T/C: 94 % of control
dose: 150.0 mg/kg/injection, schedule: Q01DX001 (ip), vehicle: saline
  T/C: 89 % of control
dose: 300.0 mg/kg/injection, schedule: Q01DX001 (ip), vehicle: saline
  T/C: 92 % of control

## COc1ccc(/C=C2\N=C(c3ccc([N+](=O)[O-])cc3)OC2=O)cc1Br
[12]
  T/C: 101 % of control
dose: 200.0 mg/kg/injection, schedule: Q04DX002 (ip), vehicle: saline
  T/C: 104 % of control
[13]
  T/C: 115 % of control

## CC12CCC(=O)C=C1CC(Sc1ccc(N(CCCl)CCCl)cc1)C1C2CCC2(C)C(O)CCC12 (stereo not drawn)
dose: 100.0 mg/kg/injection, schedule: Q01DX001 (sc), vehicle: steriod suspending solution
  T/C: 108 % of control
dose: 200.0 mg/kg/injection, schedule: Q01DX001 (sc), vehicle: steriod suspending solution
  T/C: 108 % of control
dose: 400.0 mg/kg/injection, schedule: Q01DX001 (sc), vehicle: steriod suspending solution
  T/C: 100 % of control

## CC1=CC2C(C(C)C)CC1C1C(=O)OC(=O)C21 (stereo not drawn)
dose: 100.0 mg/kg/injection, schedule: Q04DX002 (ip), vehicle: Klucel (hydroxypropylcellulose) (HPC)
  T/C: 102 % of control
dose: 200.0 mg/kg/injection, schedule: Q04DX002 (ip), vehicle: Klucel (hydroxypropylcellulose) (HPC)
  T/C: 100 % of control

## CCCCSc1nc(NCC)nc(NCC)n1
dose: 100.0 mg/kg/injection, schedule: Q04DX002 (sc), vehicle: olive oil, sesame oil, peanut oil
  T/C: 102 % of control
dose: 200.0 mg/kg/injection, schedule: Q04DX002 (sc), vehicle: olive oil, sesame oil, peanut oil
  T/C: 105 % of control
dose: 400.0 mg/kg/injection, schedule: Q04DX002 (sc), vehicle: olive oil, sesame oil, peanut oil
  T/C: 115 % of control

## COC(=O)Nc1cccc2c1C=CC(C#N)N2C(=O)OC (stereo not drawn)
[9]
  T/C: 93 % of control
[6]
  T/C: 87 % of control
[10]
  T/C: 100 % of control
[7]
  T/C: 91 % of control
[8]
  T/C: 100 % of control

## O=C(O)C1=NN(c2cc(Cl)c(S(=O)(=O)O)cc2Cl)C(=O)C1
[14]
  T/C: 92 % of control
[15]
  T/C: 100 % of control
dose: 400.0 mg/kg/injection, schedule: Q04DX003 (ip), vehicle: saline
  T/C: 106 % of control

## Nc1nc(N)nc(Nc2ccc([As]=O)cc2)n1 (stereo not drawn)
dose: 25.0 mg/kg/injection, schedule: Q01DX009 (ip), vehicle: Klucel (hydroxypropylcellulose) (HPC)
  T/C: 112 % of control
dose: 50.0 mg/kg/injection, schedule: Q01DX009 (ip), vehicle: Klucel (hydroxypropylcellulose) (HPC)
  T/C: 117 % of control
[9]
  T/C: 102 % of control

## c1ccc2c(c1)Cc1ccccc1C2
dose: 100.0 mg/kg/injection, schedule: Q04DX002 (ip), vehicle: other
  T/C: 110 % of control
dose: 200.0 mg/kg/injection, schedule: Q04DX002 (ip), vehicle: other
  T/C: 94 % of control
dose: 400.0 mg/kg/injection, schedule: Q04DX002 (ip), vehicle: other
  T/C: 113 % of control

## NOCc1ccc(CON)cc1
[14]
  T/C: 95 % of control
[15]
  T/C: 97 % of control

## N#Cc1c(N)sc(N)c1C#N
[9]
  T/C: 96 % of control
[6]
  T/C: 100 % of control
[10]
  T/C: 89 % of control
[7]
  T/C: 98 % of control
[11]
  T/C: 96 % of control
[8]
  T/C: 98 % of control

## O=C1NC(=O)C2C3CCC(C12)C3C(c1ccccc1)c1ccccc1 (stereo not drawn)
dose: 100.0 mg/kg/injection, schedule: Q01DX001 (ip), vehicle: carboxymethylcellulose (CMC)
  T/C: 106 % of control
dose: 200.0 mg/kg/injection, schedule: Q01DX001 (ip), vehicle: carboxymethylcellulose (CMC)
  T/C: 95 % of control
dose: 400.0 mg/kg/injection, schedule: Q01DX001 (ip), vehicle: carboxymethylcellulose (CMC)
  T/C: 103 % of control

## COc1ccc(C(=O)/C=C/c2ccc(OC)c(OC)c2)cc1
[6]
  T/C: 95 % of control
[7]
  T/C: 92 % of control
[8]
  T/C: 100 % of control

## Nc1ccc(N(CCCl)CCN(CCCl)c2ccc(N)cc2)cc1
dose: 0.25 mg/kg/injection, schedule: Q01DX009 (ip), vehicle: saline
  T/C: 102 % of control
dose: 0.5 mg/kg/injection, schedule: Q01DX009 (ip), vehicle: saline
  T/C: 109 % of control
dose: 1.0 mg/kg/injection, schedule: Q01DX009 (ip), vehicle: saline
  T/C: 118 % of control
dose: 1.2 mg/kg/injection, schedule: Q01DX009 (ip), vehicle: carboxymethylcellulose (CMC)
  T/C: 109 % of control
dose: 2.5 mg/kg/injection, schedule: Q01DX001 (ip), vehicle: carboxymethylcellulose (CMC)
  T/C: 106 % of control
dose: 2.5 mg/kg/injection, schedule: Q01DX009 (ip), vehicle: carboxymethylcellulose (CMC)
  T/C: 111 % of control
dose: 2.9 mg/kg/injection, schedule: Q01DX001 (ip), vehicle: carboxymethylcellulose (CMC)
  T/C: 114 % of control
dose: 2.9 mg/kg/injection, schedule: Q01DX009 (ip), vehicle: carboxymethylcellulose (CMC)
  T/C: 119 % of control
dose: 2.9 mg/kg/injection, schedule: Q01DX009 (ip), vehicle: saline
  T/C: 169 % of control
dose: 4.0 mg/kg/injection, schedule: Q01DX001 (ip), vehicle: saline
  T/C: 106 % of control
dose: 4.4 mg/kg/injection, schedule: Q01DX001 (ip), vehicle: carboxymethylcellulose (CMC)
  T/C: 119 % of control
dose: 4.4 mg/kg/injection, schedule: Q01DX009 (ip), vehicle: saline
  T/C: 159 % of control
dose: 5.0 mg/kg/injection, schedule: Q01DX001 (ip), vehicle: carboxymethylcellulose (CMC)
  T/C: 115 % of control
dose: 6.0 mg/kg/injection, schedule: Q01DX001 (ip), vehicle: saline
  T/C: 122 % of control
dose: 10.0 mg/kg/injection, schedule: Q01DX001 (ip), vehicle: saline
  T/C: 111 % of control
dose: 10.0 mg/kg/injection, schedule: Q01DX009 (ip), vehicle: carboxymethylcellulose (CMC)
  T/C: 106 % of control
dose: 10.0 mg/kg/injection, schedule: Q01DX009 (ip), vehicle: saline
  T/C: 105 % of control
dose: 15.0 mg/kg/injection, schedule: Q01DX001 (ip), vehicle: saline
  T/C: 117 % of control
